Columns and labels:
Male adult Wistar rats = test: Forced run on conveyer belt (fatigue), uninjured rats; format: in vivo, rat; conditions: 0.25 mg/Kg intraperitoneal; for effect on latency (Δ latency) in forced run: after injection, compared with carrier, result in words; for improvement in resistance to fatigue (decrease in latency) with respect to carrier: single injection, average
Description: (§1) Animals. Male adult Wistar rats were used (300-350 g; 12 weeks old), obtained from Harlan-Interfauna Ibérica (Barcelona, Spain) kept in our animal house in a light:dark cycle of 12:12 hours, receiving food and water ad libitum. The animals were handled in accordance with the guides published in the “NIH Guide for the Care and Use of Laboratory Animals”, the principles covered by the “Guidelines for the Use of Animals in Neuroscience Research” published by the American Neuroscience Society, and the European Union Guidelines (Directive 86/609/EEC). The rats were assigned to the groups with injection of carrier or the CB1 antagonists/inverse agonists (rimonabant (SR141716A) or AM281). Five uninjured animals and 3 injured animals were used for each group.
(§2) The rats were acclimatized to the conveyer belt making them walk on the belt at low speed. The forced run protocol consisted of a first session of 15 minutes run (20 m/min, 5% inclination) followed by a second session 2 hours later (Fatigue 2 h). The same protocol was repeated the following day to study the continuance of the effects observed with the treatment (Fatigue 24 h). In order to keep the rats running throughout the study, mild electric shock was used (20 mV, 1.67 Hz) and, possible, gentle touches by the experimenter's hand. The drugs were administered immediately after the first session of the first day. The treatments consisted of a single intraperitoneal injection of SR141716A (0.25 mg/Kg), or AM281 (0.25 mg/Kg), or carrier (2.5% Bovine Serum Albumin, SIGMA, Spain, in 0.9% NaCl).
Latency was defined as the number of seconds during the experiment where the animals touched the grille located at the end of the conveyer belt. The animals that remained more than twice at the electric grille receiving discharges of over 10 seconds were considered exhausted and were returned to their cages. In this case, latency time was also considered the remaining time until the end of the protocol. The latency increase (αlatency) was calculated as the difference between the action of the rat at each time minus the values of the first session. Therefore, the negative measurements reflect a decrease in latency, and, therefore, an improvement in motor capacity.

healthy volunteers [1] = test: Adverse effects observed in subjects of the stimulation study; format: in vivo, human; conditions: single dose of 20 mg
Description: (§3) A neurophysiological examination was carried out before and 24 hours after administration of a single dose of 20 mg of rimonabant.
Nine healthy volunteers (average age±S.D 32.1±5.8 years) participated in the experiments using TMS (transcranial magnetic stimulation) and six participated in the experiments with electric stimulation. All subjects gave their informed written consent. The study was developed in accordance with the Declaration of Helsinki and approved by the Local Ethics Committee. The magnetic stimulation was developed using two Magstim 200 high-power magnetic stimulators (Magstim Co., Whitland, UK) connected to the Bistim Module during all measurements. A figure of 8 shaped coil was placed with an external diameter of 9 cm on the right motor cortex, in optimal position of the head to provoke a motor response in the contralateral first dorsal interosseous. The current induced a flow in the posteroanterior direction. The rest motor threshold (RMT) was defined as the stimulus of minimum intensity capable of producing a motor evoked response at rest (of around 50 μV in 50% of the 10 attempts). The active motor threshold (AMTtms) was defined as the stimulus of minimum intensity capable of producing a motor evoked response (around 200 μV in 50% of the 10 attempts) during the isometric contraction of the muscle tested at approximately 20% of the maximum. A constant voluntary contraction level was maintained by electromyogram display oscilloscope placed in front of the subject.
In six subjects we also performed electric stimulation of the motor cortex during voluntary contraction. This was performed with a Digitimer D180A digital stimulator with a time constant of 50 μs. The cathode was placed in the vertex and the anode at 7 cm laterally (anodic stimulation). We evaluate the active electric motor threshold (AMTtes) defined as the stimulus of minimum intensity capable of producing a motor evoked response of around 200 μV in 50% of ten attempts during the voluntary contraction.

healthy volunteers [2] = test: Intracortical facilitation (ICF), paired-pulse TMS; format: in vivo, human; conditions: % of response to test stimulus without conditioning stimulus; 24 hours after single dose of 20 mg; baseline 117±21%; P=0.0212; ±SD
Description: as §3
(§4) Using transcranial magnetic stimulation (TMS) we evaluate the electromyographic response thresholds in the first dorsal interosseous (FDI) at rest and during voluntary contraction. Using transcranial electric stimulation (TES) we evaluate the electromyographic response thresholds in the first dorsal interosseous during voluntary contraction. Transcranial electric stimulation tends to activate the axons of the corticospinal neurons in the white matter whilst magnetic stimulation activates the same fibres trans-synaptically (Hallett, 2000 Jul. 13, 406 (6792):147-50). Therefore, the response evoked electrically are not as sensitive to changes in cortical excitability as those evoked by magnetic stimulation. We also evaluate short-latency intracortical facilitation (ICF). ICF was studied using the technique of Kujirai et al. (J Physiol. 1993 Nov; 471:501-19). […]
The response facilitation conditional upon the three different ISIs studied was then averaged to give a magnified average value. The amplitude of the motor evoked potentials was expressed as percentages of amplitude of the motor evoked potentials of the tests. […]

[3] = tested on: rats with moderate spinal cord lesion; test: Modified forced run on conveyer belt, rats with moderate spinal cord lesion; format: in vivo, rat; conditions: 0.25 mg/Kg intraperitoneal; for improvement in resistance to fatigue (decrease in latency) with respect to carrier: 7 days after lesion, average
Description: as §1
as §2, with “The treatments consisted of a single intraperitoneal injection of SR141716A (0.25 mg/Kg), or AM281 (0.25 mg/Kg), or carrier (2.5% Bovine Serum Albumin, SIGMA, Spain, in 0.9% NaCl).” left out
Latency was defined as the number of seconds during the experiment where the animals touched the grille located at the end of the conveyer belt. […] The latency increase (αlatency) was calculated as the difference between the action of the rat at each time minus the values of the first session. […]
6 animals were subjected to a moderate spinal cord lesion by, using the “Infinite Horizon” motorized system (Precision Systems & Instrumentation, [PSI], Lexington, Ky.). […] The hydration state was monitored as was the presence of possible infections in the animals until the end of the experiment. […]

healthy volunteers [4] = test: Motor thresholds by transcranial magnetic stimulation (TMS), first dorsal interosseous; format: in vivo, human; conditions: % of maximum stimulator output, 24 hours after single dose of 20 mg, ±SD
Description: (§5) The objective of the present experiments was to use transcranial magnetic and electric stimulation to test the effects of a single dose of 20 mg of rimonabant in motor cortex and spinal motor neuron excitability.
as §3, §4

healthy volunteers [5] = test: Active motor threshold by transcranial electric stimulation (TES); format: in vivo, human; conditions: % of maximum stimulator output; 24 hours after single dose of 20 mg; six subjects; baseline 19.6±6%; P=0.0164; ±SD
Description: as §5, §3
Using transcranial magnetic stimulation (TMS) we evaluate the electromyographic response thresholds in the first dorsal interosseous (FDI) at rest and during voluntary contraction. Using transcranial electric stimulation (TES) we evaluate the electromyographic response thresholds in the first dorsal interosseous during voluntary contraction. Transcranial electric stimulation tends to activate the axons of the corticospinal neurons in the white matter whilst magnetic stimulation activates the same fibres trans-synaptically (Hallett, 2000 Jul. 13, 406 (6792):147-50). Therefore, the response evoked electrically are not as sensitive to changes in cortical excitability as those evoked by magnetic stimulation. We also evaluate short-latency intracortical facilitation (ICF). ICF was studied using the technique of Kujirai et al. (J Physiol. 1993 Nov; 471:501-19).
In six subjects we also performed electric stimulation of the motor cortex during voluntary contraction. This was performed with a Digitimer D180A digital stimulator with a time constant of 50 μs. […]

| Structure (SMILES) | effect on latency (Δ latency) in forced run (Male adult Wistar rats) | improvement in resistance to fatigue (decrease in latency) with respect to carrier (Male adult Wistar rats; 2 hours after fatigue) | improvement in resistance to fatigue (decrease in latency) with respect to carrier (Male adult Wistar rats; 24 hours after fatigue) | duration of agitation and anxiety, average (healthy volunteers [1]; affected subjects) | effects on attention (healthy volunteers [1]; healthy volunteers) | subjects with agitation and anxiety (healthy volunteers [1]; nine healthy volunteers) | subjects with nauseas (healthy volunteers [1]; nine healthy volunteers, during 24 h) | intracortical facilitation (ICF), mean (healthy volunteers [2]) | effect on latency (Δ latency) in forced run ([3]; 2 hours after injection compared with carriers, result in words) | improvement in resistance to fatigue (decrease in latency) with respect to carrier ([3]; 2 hours after fatigue) | improvement in resistance to fatigue (decrease in latency) with respect to carrier ([3]; 24 hours after fatigue) | active motor threshold using transcranial magnetic stimulation (AMTtms), mean (healthy volunteers [4]; baseline 39±4%, P=0.0008) | resting motor threshold using transcranial magnetic stimulation (RMT), mean (healthy volunteers [4]; baseline 48±6%, P=0.0775 (not significant)) | active motor threshold using transcranial electric stimulation (AMTtes), mean (healthy volunteers [5]) |
| --- | --- | --- | --- | --- | --- | --- | --- | --- | --- | --- | --- | --- | --- | --- |
| Cc1c(C(=O)NN2CCOCC2)nn(-c2ccc(Cl)cc2Cl)c1-c1ccc(I)cc1 [AM281] | decreased latency | 185 s | 207 s | – | – | – | – | – | – | – | – | – | – | – |
| Cc1c(C(=O)NN2CCCCC2)nn(-c2ccc(Cl)cc2Cl)c1-c1ccc(Cl)cc1 [rimonabant, N-(piperidin-1-yl)-5-(4-chlorophenyl)-1-(2,4-dichlorophenyl)-4-methyl-1H-pyrazole-3-carboxamide] | decreased latency | 75 s | 125 s | 6 h | moderate | Three of the subjects experienced agitation and anxiety | one suffered nauseas | 150±40% | decreased latency | 136 s | 200 s | 35.5±4% | 46.5±6% | 17.5±6% |

From patent US9592237B2, “Use of CB1 antagonists and/or inverse agonists for the preparation of drugs that increase motor neuron excitability” (Fundacion Del Hospital Nacional De Paraplejicos Para La …, priority 2009, dated 2017)
